Key:
[1] = test system: Human immunodeficiency virus 1; experiment: Antiviral activity against HIV-1 infected in MT4 cells assessed as inhibition of virus-induced cytopathogenicity after 4 days by MTT assay; format: functional, organism-based; details: Human immunodeficiency virus 1, MT4, 96 h
[2] = Cytotoxicity against human MT4 cells assessed as cell viability after 96 hrs by MTT assay; format: cell-based
[3] = Cytotoxicity against african green monkey Vero 76 cells assessed as cell viability after 48 to 96 hrs by crystal violet staining method; format: cell-based; details: chlorocebus sabaeus
[4] = Cytotoxicity against MDBK cells assessed as cell viability after 48 to 96 hrs by MTT assay; format: cell-based, Bos taurus; details: cattle
[5] = test system: Vesicular stomatitis virus; experiment: Antiviral activity against VSV; format: functional, organism-based
[6] = test system: Bovine viral diarrhea virus 1; experiment: Antiviral activity against BVDV infected in MDBK cells assessed as inhibition of virus-induced cytopathogenicity after 3 to 4 days by MTT assay; format: functional, organism-based; details: Bovine viral diarrhea virus isolates and strains
Human orthopneumovirus = experiment: Antiviral activity against human RSV infected in african green monkey Vero76 cells assessed as inhibition of virus-induced cytopathogenicity after 5 days by plaque reduction assay; format: functional, organism-based; details: human respiratory syncytial virus, Vero 76, 120 h
[7] = Cytotoxicity against BHK cells assessed as cell viability after 48 to 96 hrs by MTT assay; format: cell-based, Mesocricetus auratus; details: hamster
Coxsackievirus B5 = experiment: Antiviral activity against human CVB5 infected in african green monkey Vero76 cells assessed as inhibition of virus-induced cytopathogenicity after 3 days by plaque reduction assay; format: functional, organism-based; details: Enterovirus B, Vero 76, 72 h
Vaccinia virus = experiment: Antiviral activity against Vaccinia virus; format: functional, organism-based; details: Orthopoxvirus vaccinia
Yellow fever virus = experiment: Antiviral activity against YFV infected in BHK-21 cells assessed as inhibition of virus-induced cytopathogenicity after 3 to 4 days by MTT assay; format: functional, organism-based
Poliovirus 1 = experiment: Antiviral activity against Human poliovirus 1 Sabin infected in african green monkey Vero76 cells assessed as inhibition of virus-induced cytopathogenicity by plaque reduction assay; format: functional, organism-based; details: Enterovirus C, Vero 76
[8] = test system: Mammalian orthoreovirus 1; experiment: Antiviral activity against Reo-1 virus infected in BHK-21 cells assessed as inhibition of virus-induced cytopathogenicity after 3 to 4 days by MTT assay; format: functional, cell-based; details: Mammalian orthoreovirus 1, BHK-21
Human alphaherpesvirus 1 = experiment: Antiviral activity against HSV1; format: functional, organism-based

SMILES | EC50 [1] [µM] | CC50 at 96 h [2] [µM] | CC50 [3] [µM] | CC50 [4] [µM] | EC50 [5] [µM] | EC50 [6] [µM] | EC50 (Human orthopneumovirus) [µM] | CC50 [7] [µM] | EC50 (Coxsackievirus B5) [µM] | EC50 (Vaccinia virus) [µM] | EC50 (Yellow fever virus) [µM] | EC50 (Poliovirus 1) [µM] | EC50 [8] [µM] | EC50 (Human alphaherpesvirus 1) [µM]
Clc1c(Cl)c(Cl)c2c(nnn2C2CCCO2)c1Cl (stereo not given) | > 100 | 95 |  |  |  |  |  |  |  |  |  |  |  | 
COc1cc(C(=O)OCCn2nnc3ccccc32)cc(OC)c1OC | > 100 | 1.9 | 80 | 40 | > 100 | > 100 | > 100 | 70 | > 100 | > 100 | > 100 |  |  | 
CN(C)C(=O)Cn1nnc2ccccc21 | > 100 | > 100 | > 100 | > 100 | > 100 | > 100 | > 100 | > 100 | > 100 | > 100 | > 100 |  |  | 
CC(CC(=O)O)n1nc2ccc([N+](=O)[O-])cc2n1 (stereo not given) | > 100 | > 100 | > 100 | > 100 | > 100 | > 100 | > 100 | > 100 | > 100 | > 100 | > 100 |  |  | 
Clc1cc2nn(C3CCCO3)nc2cc1Cl (stereo not given) | > 100 | > 100 |  | > 100 |  | > 100 |  | > 100 |  |  | > 100 |  |  | 
C[C@@H](Oc1ccc(-n2nc3ccccc3n2)cc1)C(=O)O | > 100 | > 100 | > 100 | > 100 | > 100 | > 100 | > 100 | > 100 | > 100 | > 100 | > 100 | > 100 |  | 
O=C(Cn1nnc2ccccc21)N1CCOCC1 | > 100 | > 100 | > 100 | > 100 | > 100 | > 100 | > 100 | > 100 | > 100 | > 100 | > 100 |  |  | 
COc1cc(C(=O)OCCn2nc3ccccc3n2)cc(OC)c1OC | > 100 | 0.3 | 1.6 | 6 | > 100 | > 100 | > 100 | 26 | > 100 | > 100 | > 100 |  |  | 
COc1cc(/C=C/C(=O)OCCn2nc3ccccc3n2)cc(OC)c1OC | > 100 | ≥ 100 | > 100 | > 100 | > 100 | > 100 | > 100 | > 100 | > 100 | > 100 | > 100 |  |  | 
COc1cc(/C=C/C(=O)OCCCn2nnc3ccccc32)cc(OC)c1OC | > 100 | > 100 | > 100 | 83 | > 100 | > 100 | > 100 | > 100 | > 100 | > 100 | > 100 |  |  | 
COc1ccc(-n2nc3cc(Cl)c(Cl)cc3n2)cc1 | > 100 | > 100 | > 100 | > 100 | > 100 | > 100 | > 100 | > 100 | > 100 | > 100 | > 100 | > 100 | > 100 | 
CC(CC(=O)O)n1nnc2ccc([N+](=O)[O-])cc21 (stereo not given) | > 100 | > 100 | > 100 | > 100 | > 100 | > 100 | > 100 | > 100 | > 100 | > 100 | > 100 |  |  | 
NCCn1nnc2ccccc21 | > 100 | > 100 | > 100 | > 100 | > 100 | > 100 | > 100 | > 100 | > 100 | > 100 | > 100 |  |  | 
Nc1nc2c(ncn2COCCO)c(=O)[nH]1 [ACYCLOVIR] |  | > 100 | > 100 | > 100 | > 100 | > 100 | > 100 | > 100 | > 100 | > 100 | > 100 | > 100 |  | 1.2
COc1cc(C(=O)OCCCn2nc3ccccc3n2)cc(OC)c1OC | > 100 | > 100 | > 100 | > 100 | > 100 | > 100 | > 100 | > 100 | > 100 | > 100 | > 100 |  |  | 

— ChEMBL document CHEMBL3734667 (Bioorg Med Chem, 2015)
